Data published in patent US8178579B2, “Dioxanes and uses thereof” (President and Fellows of Harvard College, priority 2001, dated 2012).

Molecular target: T1, HDAC6F H611A mutant (Homo sapiens, UniProt Q9UBN7, H611A)
T1 construct: made in house; host or cells: TAg Jurkat cells, transient transfection, anti-FLAG M2 immunoprecipitation
Test: in vitro deacetylase assay with [3H]-histones, HDAC6F H611A mutant
Format: biochemical
Settings: [3H]-labeled histones, n=3
Protocol: FLAG-tagged HDAC pBJ5 constructs were transiently transfected by electroporation with 5 μg DNA for expression of recombinant proteins (C. M. Grozinger, C. A. Hassig and S. L. Schreiber, Proc. Natl. Acad. Sci. USA, 27, 4868 (1999); and C. A. Hassig et al., Proc. Natl. Acad. Sci. USA 95, 3519 (1998)]. Cells were mock transfected without DNA or with a non-FLAG-tagged pCMV-LacZ construct as a negative control. Forty-eight hours after transfection recombinant proteins were immunoprecipitated using anti-FLAG M2 agarose affinity gel beads as described [C. A. Hassig et al., Proc. Natl. Acad. Sci. USA 95, 3519 (1998)]. Western blotting using anti-acetylated α-tubulin (1:1000) anti-tubulin (1:1000), and anti-acetylated (K9, K14) histone H3 (1:1000) antibodies was performed using standard methods (K. M. Koeller et al., Chemistry & Biology, 10 (5) (2003) pp. 397-410). […]
[^3H]Acetate-incorporated histones were isolated from butyrate-treated HeLa cells as described [J. Taunton, C. […] Immunoprecipitates were incubated with acetylated histones and HDAC activity determined by scintillation counting as described [J. Taunton, C. […] After centrifugation, the supernatant (diluted to 0.4 μg tubulin) and α-FLAG M2 agarose affinity gel beads were analyzed by western blotting with an anti-FLAG M2 antibody (1:1750) to ensure equal protein levels.

T1 sequence (Q9UBN7 whole entry H611A): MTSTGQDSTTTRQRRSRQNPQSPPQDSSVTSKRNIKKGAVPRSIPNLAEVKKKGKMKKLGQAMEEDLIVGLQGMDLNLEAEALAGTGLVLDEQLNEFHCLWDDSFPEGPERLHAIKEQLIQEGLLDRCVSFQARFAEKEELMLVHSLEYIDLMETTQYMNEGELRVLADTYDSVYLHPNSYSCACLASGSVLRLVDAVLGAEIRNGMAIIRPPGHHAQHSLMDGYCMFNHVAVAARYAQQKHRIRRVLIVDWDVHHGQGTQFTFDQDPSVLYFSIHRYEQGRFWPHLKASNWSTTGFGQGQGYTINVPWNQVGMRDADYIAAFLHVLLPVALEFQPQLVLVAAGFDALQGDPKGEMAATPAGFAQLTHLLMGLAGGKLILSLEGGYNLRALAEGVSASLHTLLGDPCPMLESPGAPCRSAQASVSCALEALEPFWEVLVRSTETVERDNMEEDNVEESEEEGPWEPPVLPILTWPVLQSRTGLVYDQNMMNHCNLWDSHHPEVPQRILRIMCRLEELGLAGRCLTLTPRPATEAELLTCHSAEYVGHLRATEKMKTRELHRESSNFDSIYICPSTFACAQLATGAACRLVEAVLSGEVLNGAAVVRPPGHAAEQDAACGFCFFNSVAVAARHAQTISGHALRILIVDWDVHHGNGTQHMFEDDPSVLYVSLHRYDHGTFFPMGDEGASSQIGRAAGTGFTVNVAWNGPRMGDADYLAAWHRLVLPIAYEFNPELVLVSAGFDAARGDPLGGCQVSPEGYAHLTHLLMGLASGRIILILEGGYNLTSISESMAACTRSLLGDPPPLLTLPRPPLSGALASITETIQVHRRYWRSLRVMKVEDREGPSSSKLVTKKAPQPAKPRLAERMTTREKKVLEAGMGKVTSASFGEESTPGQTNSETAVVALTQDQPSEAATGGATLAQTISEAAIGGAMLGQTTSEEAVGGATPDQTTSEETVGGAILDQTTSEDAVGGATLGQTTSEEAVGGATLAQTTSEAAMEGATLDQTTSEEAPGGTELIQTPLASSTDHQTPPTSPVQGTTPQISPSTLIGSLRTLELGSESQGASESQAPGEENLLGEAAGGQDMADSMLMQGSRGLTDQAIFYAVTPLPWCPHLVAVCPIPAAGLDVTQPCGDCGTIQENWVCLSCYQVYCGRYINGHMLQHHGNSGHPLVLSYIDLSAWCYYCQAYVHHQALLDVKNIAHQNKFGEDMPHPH

| Structure (SMILES) | inhibition of HDAC activity of HDAC6F H611A mutant |
| --- | --- |
| CC(/C=C/C(=O)NO)=C\[C@@H](C)C(=O)c1ccc(N(C)C)cc1 [TSA, trichostatin A, reference compound] | not inhibited by either TSA or tubacin |
| O=C(CCCCCCC(=O)Nc1ccc([C@@H]2OC(c3ccc(CO)cc3)C[C@H](CSc3nc(-c4ccccc4)c(-c4ccccc4)o3)O2)cc1)NO (some centres unmarked) [tubacin] | not inhibited by either TSA or tubacin |
